Assay results published in patent US5644053A, “Penam derivatives” (Hoffmann-La Roche Inc., priority 1994, dated 1997).
Where two headings read alike, the source gives them in different places.

Columns and labels:
β-lactamase [1] = type: biochemical; settings: read-out: IC50 E. coli CF 102 (β-lactamase inhibition)
Method: Various β-lactamases can be isolated from penicillin- or cephalosporin-resistant bacterial strains such as Klebsiella pneumonia NCTC 418, Proteus vulgaris 1028, Bacillus licheniformis 749/C, Escherichia coil SN01 and Citrobacter freundii 1203. For this purpose, the corresponding strains are cultivated in Tryptic Soy Broth (Difco) and harvested by centrifugation in the last logarithmic growth phase (when necessary 50-100 mg/l of ampicillin are added to the medium towards the end of the log-phase in order to induce the β-lactamase). The thus-obtained bacterial mass is treated with 20 mM Tris-HCl buffer (pH 7.0); the cells are broken open with a French press while cooling. The mixture is centrifuged (20,000 r/min.) for 20-30 minutes and a clear crude extract is obtained.
(§4) The determination of the activity of the isolated β-lactamases can be carried out according to the method of O'-Callaghan, C. […] The requisite test batch contains per ml of water: 50 mM phosphate buffer (pH 7.0), 0.1 mM nitrocefin and sufficient enzyme (β-lactamase) to achieve a ΔA/min. of about 0.1.
(§5) The determination of the IC50 was effected by means of a graph.

E. cloacae = assay: In vitro activity of combinations with selected antibiotics against β-lactamase over-producer strains, E. cloacae; type: cell-based; settings: β-lactamase over-producer strain; combinations: constant inhibitor concentration 4 mg/l; unit assumed
Method: (§1) In vitro activity of combinations of Example 5c with selected
(§2) antibiotics against β-lactamase over-producer strains
(§3) (constant inhibitor concentration: 4 mg/l)

Ps. aeruginosa = assay: In vitro activity of combinations with selected antibiotics against β-lactamase over-producer strains, Ps. aeruginosa; type: cell-based; settings: β-lactamase over-producer strain; combinations: constant inhibitor concentration 4 mg/l; unit assumed
Method: as §1, §2, §3

E. coli = assay: In vitro activity of combinations with selected antibiotics against β-lactamase over-producer strains, E. coli; type: cell-based; settings: β-lactamase over-producer strain; combinations: constant inhibitor concentration 4 mg/l; unit assumed
Method: as §1, §2, §3

C. freundii = assay: In vitro activity of combinations with selected antibiotics against β-lactamase over-producer strains, C. freundii; type: cell-based; settings: β-lactamase over-producer strain; combinations: constant inhibitor concentration 4 mg/l; unit assumed
Method: as §1, §2, §3

β-lactamase [2] = target: β-lactamase (Citrobacter freundii, UniProt P05193); settings: read-out: IC50 C. freundii 1982 (β-lactamase inhibition)
β-lactamase (Citrobacter freundii, UniProt P05193), sequence (P05193 21-381): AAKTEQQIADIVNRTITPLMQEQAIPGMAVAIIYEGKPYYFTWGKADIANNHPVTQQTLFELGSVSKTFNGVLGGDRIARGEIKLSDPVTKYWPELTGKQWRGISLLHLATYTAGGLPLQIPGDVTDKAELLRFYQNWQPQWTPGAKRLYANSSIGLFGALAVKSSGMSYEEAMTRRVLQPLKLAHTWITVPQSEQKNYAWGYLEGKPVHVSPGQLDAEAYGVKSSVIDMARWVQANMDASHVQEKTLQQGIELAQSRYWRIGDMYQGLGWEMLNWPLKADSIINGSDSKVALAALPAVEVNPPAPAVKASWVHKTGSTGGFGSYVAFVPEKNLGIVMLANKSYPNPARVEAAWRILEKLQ
Method: For this purpose, the corresponding strains are cultivated in Tryptic Soy Broth (Difco) and harvested by centrifugation in the last logarithmic growth phase (when necessary 50-100 mg/l of ampicillin are added to the medium towards the end of the log-phase in order to induce the β-lactamase). The thus-obtained bacterial mass is treated with 20 mM Tris-HCl buffer (pH 7.0); the cells are broken open with a French press while cooling. The mixture is centrifuged (20,000 r/min.) for 20-30 minutes and a clear crude extract is obtained.
as §4, §5

[3] = isolated enzyme, nitrocefin substrate, pH 7.0, 37° C., 15 min pre-incubation

| Compound | IC50 (β-lactamase [1]; pH 7) [nM] | MIC E. cloacae (E. cloacae) [µg/mL] | MIC Ps. aeruginosa (Ps. aeruginosa) [µg/mL] | MIC E. coli (E. coli) [µg/mL] | MIC C. freundii (C. freundii) [µg/mL] | further results |
| --- | --- | --- | --- | --- | --- | --- |
| C[C@]1(/C=C\C#N)[C@H](C(=O)O)N2C(=O)C[C@H]2S1(=O)=O [5c (cis nitrile), Sodium (Z)-(2S,3S,5R)-3-(2-cyanoethenyl)-3-methyl-4,4,7-trioxo-4-thia-1-aza-bicyclo [3.2.0]heptane-2-carboxylate] | 126 | – | – | – | – | – |
| CO/N=C(\C(=O)N[C@@H]1C(=O)N2C(C(=O)O)=C(CSc3nc(=O)c(=O)[nH]n3C)CS[C@H]12)c1csc(N)n1 [Ceftriaxone] | – | > 64 | > 64 | 16 | 64 | – |
| C[C@]1(/C=C/C(N)=O)[C@H](C(=O)O)N2C(=O)C[C@H]2S1(=O)=O [6c (trans amide), Sodium (E)-(2S,3S,5R)-3-(2-carbamoyl-vinyl)-3-methyl-4.4.7-trioxo-4-thia-1-azabicyclo[3.2.0]heptane-2-carboxylate] | – | – | – | – | – | IC50 (β-lactamase [2]; [3]): 2250 nM; IC50 (β-lactamase [1]; [3]): 54 nM |
| C[C@]1(Cn2ccnn2)[C@H](C(=O)O)N2C(=O)C[C@H]2S1(=O)=O [Tazobactam] | – | – | – | – | – | IC50 (β-lactamase [2]; pH 7): 900 nM; IC50 (β-lactamase [1]; [3]): 15 nM |
| CCOC(=O)/C=C/[C@@]1(C)[C@H](C(=O)O)N2C(=O)C[C@H]2S1(=O)=O [2c (trans ethyl ester), Sodium (E)-(2S,3S,5R)-3-(2-ethoxycarbonyl-vinyl)-3-methyl-4,4,7-trioxo-4-thia-1-aza-bicyclo[3.2.0]heptane-2-carboxylate] | 456 | – | – | – | – | – |
| CCN1CCN(C(=O)N[C@@H](C(=O)N[C@@H]2C(=O)N3[C@@H]2SC(C)(C)[C@@H]3C(=O)O)c2ccccc2)C(=O)C1=O [Piperacillin] | – | > 128 | > 64 | > 64 | > 128 | – |
| C[C@]1(/C=C/C#N)[C@H](C(=O)O)N2C(=O)C[C@H]2S1(=O)=O [5c (trans nitrile), Sodium (E)-(2S,3S,5R)-3-(2-cyanoethenyl)-3-methyl-4,4,7-trioxo-4-thia-1-aza-bicyclo[3.2.0]heptane-2-carboxylate] | 681 | – | – | – | – | – |
| C[C@]1(/C=C\C(N)=O)[C@H](C(=O)O)N2C(=O)C[C@H]2S1(=O)=O [6c (cis amide), Sodium (Z)-(2S,3S,5R)-3-(2-carbamoyl-vinyl)-3-methyl-4,4,7-trioxo-4-thia-1-aza-bicyclo[3.2.0]heptane-2-carboxylate] | 130 | – | – | – | – | IC50 (β-lactamase [2]; [3]): 4340 nM |
| CC1(C)S[C@@H]2[C@H](NC(=O)[C@H](NC(=O)c3cnc4cccnc4c3O)c3ccccc3)C(=O)N2[C@H]1C(=O)O [Apalcillin] | – | > 128 | 64 | > 64 | > 128 | – |
| CC(C)(O/N=C(\C(=O)N[C@@H]1C(=O)N2C(C(=O)[O-])=C(C[n+]3ccccc3)CS[C@H]12)c1csc(N)n1)C(=O)O [Ceftazidime] | – | > 64 | 32 | 32 | > 64 | – |
